From patent US20060003951A1, “Anti-viral 7-deaza L-nucleosides” (Micrologix Biotech Inc., priority 2001, published 2006)

Nc1ncnc2c1ccn2[C@@H]1C[C@@H](O)[C@H](CO)O1
melting point: 214.8 to 215.5 °C
